# Patent publication US12649732B2, “Polymorphs of (R)-N-(5-(5-isopropyl-1,2,4-oxadiazol-3-yl)-2,3-dihydro-1H-inden-1-yl)-2-methyl-2H-tetrazole-5-carboxamide” (Cytokinetics, Inc., priority 2019, dated 2026)
# Legend:
# Type in all cases: physicochemical
# [1] = Competitive slurry experiments between Form I and Form II
# Protocol: Competitive slurry experiments between Form I and Form II in different solvents were conducted. Form I was suspended in the selected solvents at both 50° C. and 5° C. and stirred for a minimum of 1 hour before filtration to create a saturated solution. Form I (ca. 10 mg) and Form II (ca. 10 mg) were combined in a HPLC vial. Each sample was treated with 0.5 ml of the selected saturated solution. The samples were stirred at the selected temperature for 6 days. Solids obtained were filtered and dried under suction for a few minutes prior to characterization. Samples were slightly wet during XRPD analysis.
# [2] = Stability study: XRPD after storage for 7 days
# Protocol: Polymorphic Form I of (R)—N-(5-(5-isopropyl-1,2,4-oxadiazol-3-yl)-2,3-dihydro-1H-inden-1-yl)-2-methyl-2H-tetrazole-5-carboxamide was analyzed by XRPD, DSC, TGA, and DVS. […] As shown in the TGA graph, no weight loss prior to degradation, which starts at about 230° C., was observed. […] Chemical stability study of Form I was also performed. XRPD patterns were measured after storage of samples of Form I for 7 days at 40° C./75% RH and 25° C./97% RH.
# Polymorphic Form I of (R)—N-(5-(5-isopropyl-1,2,4-oxadiazol-3-yl)-2,3-dihydro-1H-inden-1-yl)-2-methyl-2H-tetrazole-5-carboxamide (500 mg) was suspended in n-propyl acetate (50 vol) and stirred at 50° C. After 10 minutes, a clear solution was obtained. The solvent was removed under reduced pressure (100 ml round-bottom flask). The solid obtained was analyzed by XRPD and determined as a mixture of Form I and Form II. The solid was suspended in n-propyl acetate (40 vol) and stirred at 50° C. After 10 minutes, a clear solution was obtained. The solvent was removed under reduced pressure in a larger flask (250 ml round-bottom flask). The resulting solid was analyzed by XRPD, DSC, TGA, and GVS and determined as Form II. […] As shown in the DSC graph (sample heated at 10° C./min), an endotherm onset at about 133° C., an exotherm onset at about 135° C., and an endotherm onset at about 152° C. were observed. As shown in the TGA graph, a weight loss of about 1.1% between about 83° C. and about 160° C. prior to degradation was observed. […] Chemical stability study of Form II was also performed. XRPD patterns were measured after storage of samples of Form II for 7 days at 40° C./75% RH and 25° C./97% RH.
# [3] = Dynamic Vapor Sorption (DVS); conditions: 0-90% RH range, 25° C.
# Protocol: DVS data were obtained using a SMS DVS Intrinsic moisture sorption analyzer, controlled by DVS Intrinsic Control software. The sample temperature was maintained at 25° C. by the instrument controls. The humidity was controlled by mixing streams of dry and wet nitrogen, with a total flow rate of 200 ml/min. The relative humidity was measured by a calibrated Rotronic probe (dynamic range of 1.0-100% RH), located near the sample. The weight change, (mass relaxation) of the sample as a function of % RH was constantly monitored by a microbalance (accuracy ±0.005 mg).
# Typically, 5-30 mg of sample was placed in a tared mesh stainless steel basket under ambient conditions. The sample was loaded and unloaded at 40% RH and 25° C. (typical room conditions). A moisture sorption isotherm was performed as outlined below (2 scans per complete cycle). The standard isotherm was performed at 25° C. at 10% RH intervals over a 0-90% RH range. Typically, a double cycle (4 scans) was carried out. Data analysis was carried out within Microsoft Excel using the DVS Analysis Suite.
# [4] = Polymorph screening (isothermal maturation, liquid assisted grinding, temperature cycling maturation)
# Protocol: Polymorphic Form I of (R)—N-(5-(5-isopropyl-1,2,4-oxadiazol-3-yl)-2,3-dihydro-1H-inden-1-yl)-2-methyl-2H-tetrazole-5-carboxamide (ca. 2 g) was suspended in MeCN:H2O (90 vol) and stirred at 50° C. for 40 minutes. The clear solution was filtered and flash frozen in a dry ice/acetone bath and placed for lyophilisation. The solid isolated was analyzed by XRPD and determined to be poorly crystalline Form I.
# Poorly crystalline Form I (ca. 15 mg) was dispensed into HPLC vials. Solvent was added (10 vol) and the samples were shaken/stirred at 50° C. After 6 days, suspensions were filtered through a Millipore filter plate and dried under suction for 30 minutes prior to XPRD analysis.
# Polymorphic Form I of (R)—N-(5-(5-isopropyl-1,2,4-oxadiazol-3-yl)-2,3-dihydro-1H-inden-1-yl)-2-methyl-2H-tetrazole-5-carboxamide was dispensed into HPLC vials and two stainless steel grinding balls (3 mm diameter) added. Solvent was added (10 μl) and the samples were subjected to grinding on a Fritsch planetary mill (500 rpm, 2 hour duration). Solids obtained post grinding were analyzed by XRPD. As shown below in Table 5, Form I was obtained from all of the experiments.
# Polymorphic Form I of (R)—N-(5-(5-isopropyl-1,2,4-oxadiazol-3-yl)-2,3-dihydro-1H-inden-1-yl)-2-methyl-2H-tetrazole-5-carboxamide (20 mg) was dispensed into HPLC vials. The selected solvent was added (5 vol) to each sample then placed for maturation (RT/50° C., cycled with 4 hours at each temperature). After 2 days, the samples were removed from the maturation chamber. Suspensions were filtered through a Millipore plate and dried under suction for 20 minutes prior to XRPD analysis. Solutions obtained were treated with increasing aliquots of anti-solvent until a suspension was obtained or maximum of 5 eq. had been added. Samples were shaken at 25° C. for 30 minutes. Suspensions obtained after shaking were filtered through a Millipore plate and dried under suction for 20 minutes prior to XRPD analysis. Solutions and samples containing a small amount of solid were shaken at 25° C. overnight with any solutions obtained allowed to evaporate at RT. […]
compound,measurement,setting,value
"CC(C)c1nc(-c2ccc3c(c2)CC[C@H]3NC(=O)c2nnn(C)n2)no1 [Form I and Form II, (R)—N-(5-(5-isopropyl-1,2,4-oxadiazol-3-yl)-2,3-dihydro-1H-inden-1-yl)-2-methyl-2H-tetrazole-5-carboxamide]",XRPD analysis (form after slurry),"[1]; Sample 01, MeCN, 5 °C, 6 days",Form 1
same,XRPD analysis (form after slurry),"[1]; Sample 02, n-propyl acetate, 5 °C, 6 days",Form 1
same,XRPD analysis (form after slurry),"[1]; Sample 03, MEK, 5 °C, 6 days",Form 1
same,XRPD analysis (form after slurry),"[1]; Sample 04, H2O:MeCN (25:75), 5 °C, 6 days",Form 1
same,XRPD analysis (form after slurry),"[1]; Sample 05, H2O:MeCN (75:25), 5 °C, 6 days",Form 1
same,XRPD analysis (form after slurry),"[1]; Sample 06, MeCN, 50 °C, 6 days",Form I
same,XRPD analysis (form after slurry),"[1]; Sample 07, n-propyl acetate, 50 °C, 6 days",Form I
same,XRPD analysis (form after slurry),"[1]; Sample 09*, H2O:MeCN (25:75), 50 °C, 6 days, also treated with neat solvent",Form I
same,XRPD analysis (form after slurry),"[1]; Sample 10, H2O:MeCN (75:25), 50 °C, 6 days",Form I
same,XRPD analysis (form after slurry),"[1]; Sample 11, MEK, 50 °C, 6 days (repeat of 08)",Form I
same,XRPD analysis (form after slurry),"[1]; Sample 12, H2O:MeCN (25:75), 50 °C, 6 days (repeat of 09)",Form I
"CC(C)c1nc(-c2ccc3c(c2)CC[C@H]3NC(=O)c2nnn(C)n2)no1 [Form I, (R)—N-(5-(5-isopropyl-1,2,4-oxadiazol-3-yl)-2,3-dihydro-1H-inden-1-yl)-2-methyl-2H-tetrazole-5-carboxamide]",changes in XRPD patterns after storage,[2]; 7 days at 25° C./97% RH,No significant changes
same,changes in XRPD patterns after storage,[2]; 7 days at 40° C./75% RH,No significant changes
same,moisture uptake as determined by DVS,[3],0.36 % w/w
same,relative stability of form,"[4]; isothermal maturation, 50° C., 6 days, various solvents",most stable form
same,relative stability of form,"[4]; liquid assisted grinding, 500 rpm, 2 hour, various solvents",most stable form
same,relative stability of form,"[4]; temperature cycling maturation RT/50° C., 2 days, and anti-solvent screen",most stable form
"CC(C)c1nc(-c2ccc3c(c2)CC[C@H]3NC(=O)c2nnn(C)n2)no1 [Form II, (R)—N-(5-(5-isopropyl-1,2,4-oxadiazol-3-yl)-2,3-dihydro-1H-inden-1-yl)-2-methyl-2H-tetrazole-5-carboxamide]",changes in XRPD patterns after storage,[2]; 7 days at 25° C./97% RH,No significant changes
same,changes in XRPD patterns after storage,[2]; 7 days at 40° C./75% RH,No significant changes
same,moisture uptake as determined by DVS,[3],0.24 % w/w
